Measurements as given in paper PMC10688625, “Evaluation of arsenic metabolism and tight junction injury after exposure to arsenite and monomethylarsonous acid using a rat in vitro blood–Brain barrier model” (PLOS ONE, 2023).
Read-outs that look alike come from different tables or passages of the source.

What was measured:
[1] = test system: ZO-1; assay type: cell-based, rat; conditions: 2 μM
[2] = test system: rat in vitro-BBB model; assay type: cell-based
[3] = test system: claudin-5; assay type: cell-based, rat
[4] = test system: rat in vitro-BBB model
[5] = test system: rat in vitro-BBB model; conditions: 24 h
[6] = test system: claudin-5; assay type: cell-based, rat; conditions: 2 μM
[7] = test system: ZO-1; assay type: cell-based, rat
[8] = mouse, in vivo; cited from earlier work
[9] = test system: mouse brain slices; conditions: cited from earlier work

For `C[As](O)O` [MMA^III, monomethylarsonous acid], the “% ZO-1 Area for control” value ([1]; 6 h) was 55.0 ± 11.2%, the “% ZO-1 Area for control” value ([1]; 24 h) was 59.1 ± 9.76% and the “%TEER” value ([2]; 0.1 μM, 6 h) was 109.7 ± 16.6%. For the same compound, the “%TEER” value ([2]; 0.1 μM, 24 h) was 87.9 ± 13.0%, the “%TEER” value ([2]; 1 μM, 6 h) was 61.6 ± 6.19% and the “%TEER” value ([2]; 1 μM, 24 h) was 45.6 ± 2.09%. The “%TEER” value ([2]; 2 μM, 6 h) was 9.17 ± 4.62%, the “%TEER” value ([2]; 2 μM, 24 h) was 3.31 ± 0.67% and the Claudin-5/β-actin ([3]; 0.1 μM, 6 h) was 30.5 ± 3.26. The “Claudin-5/β-actin ratio for control” value ([3]; 0.1 μM, 6 h) was 0.45 ± 0.19, the Claudin-5/β-actin ([3]; 0.1 μM, 24 h) was 34.1 ± 25.6 and the “Claudin-5/β-actin ratio for control” value ([3]; 0.1 μM, 24 h) was 0.37 ± 0.23. The Claudin-5/β-actin ([3]; 1 μM, 6 h) was 25.8 ± 16.7, the “Claudin-5/β-actin ratio for control” value ([3]; 1 μM, 6 h) was 0.35 ± 0.16 and the Claudin-5/β-actin ([3]; 1 μM, 24 h) was 14.5 ± 4.52. For the same compound, the “Claudin-5/β-actin ratio for control” value ([3]; 1 μM, 24 h) was 0.16 ± 0.06, the Claudin-5/β-actin ([3]; 2 μM, 6 h) was 9.38 ± 5.97 and the “Claudin-5/β-actin ratio for control” value ([3]; 2 μM, 6 h) was 0.16 ± 0.15. For the same compound, the Claudin-5/β-actin ([3]; 2 μM, 24 h) was 4.68 ± 1.30, the “Claudin-5/β-actin ratio for control” value ([3]; 2 μM, 24 h) was 0.05 ± 0.02 and the “detection of dimethylarsinous acid as metabolite” value [4] was “no dimethylarsinous acid was detected”. The “fraction oxidized or methylated (converted, detoxified) within the BBB” value [4] was “Approximately 65%”, the “Penetration rate (%) DMA^V” value ([4]; 0–6 h) was 4.03±0.52% and the “Penetration rate (%) MMA^III” value ([4]; 0–6 h) was 7.63±0.79%. For the same compound, the “Penetration rate (%) MMA^V” value ([4]; 0–6 h) was 8.27±1.55%, the “percentage of arsenic in total penetration rate: DMA^V” value ([4]; 0–6 h) was “(28.5) %” and the “Penetration rate (%) DMA^V” value ([4]; 0–24 h) was 9.01±0.14%. For the same compound, the “Penetration rate (%) MMA^III” value ([4]; 0–24 h) was 13.7±5.09%, the “Penetration rate (%) MMA^V” value ([4]; 0–24 h) was 27.9±3.59% and the “percentage of arsenic in total penetration rate: DMA^V” value ([4]; 0–24 h) was “(21.4) %”. The “Papp of sodium fluorescein” value ([5]; 0.1 μM) was 1.90 ± 0.17 x 10-6 cm2/s, the “Papp of sodium fluorescein” value ([5]; 1 μM) was 2.78 ± 0.28 x 10-6 cm2/s and the “Na-F values elevated compared to the control group” value ([5]; 2 μM) was “approximately 16 fold”. For the same compound, the “Papp of sodium fluorescein” value ([5]; 2 μM) was 34.0 ± 4.97 x 10-6 cm2/s, the “% Claudin-5 Area for control” value ([6]; 6 h) was 46.6 ± 12.6% and the “% Claudin-5 Area for control” value ([6]; 24 h) was 37.2 ± 11.4%. For the same compound, the ZO-1/β-actin ([7]; 0.1 μM, 6 h) was 48.7 ± 25.7, the “ZO-1/β-actin ratio for control” value ([7]; 0.1 μM, 6 h) was 0.60 ± 0.25 and the ZO-1/β-actin ([7]; 0.1 μM, 24 h) was 41.0 ± 24.5. For the same compound, the “ZO-1/β-actin ratio for control” value ([7]; 0.1 μM, 24 h) was 0.54 ± 0.33, the ZO-1/β-actin ([7]; 1 μM, 6 h) was 44.7 ± 26.2 and the “ZO-1/β-actin ratio for control” value ([7]; 1 μM, 6 h) was 0.55 ± 0.26. For the same compound, the ZO-1/β-actin ([7]; 1 μM, 24 h) was 71.6 ± 15.1, the “ZO-1/β-actin ratio for control” value ([7]; 1 μM, 24 h) was 0.93 ± 0.19 and the ZO-1/β-actin ([7]; 2 μM, 6 h) was 16.6 ± 5.59. For the same compound, the “ZO-1/β-actin ratio for control” value ([7]; 2 μM, 6 h) was 0.23 ± 0.15, the ZO-1/β-actin ([7]; 2 μM, 24 h) was 28.7 ± 13.3 and the “ZO-1/β-actin ratio for control” value ([7]; 2 μM, 24 h) was 0.37 ± 0.15.
In the case of `O=[As][O-].[Na+]` [sodium arsenite], the “DMA^V in brain tissue” value [8] is listed as “presence of DMA^V” and the “DMA^V formation in mouse brain slices” value [9] is listed as “DMA^V was detected”.
